According to US12122816B2, “Long acting peptide tyrosine tyrosine (PYY) analogs and methods of use” (Intarcia Therapeutics, Inc., priority 2020, dated 2024):

Key:
[1] = Solubility in DI water at room temperature (visual inspection); type: physicochemical; conditions: TFA salt form
Experimental: The analog polypeptides described herein were tested for solubility in saline or in aqueous (DI water) at room temperature. Samples were visually inspected for clarity of the sample, any appearance of turbidity or haziness.

[2] = Stability in water or saline (1 mg/ml) at 37° C., purity by LC/MS and HPLC; type: physicochemical; conditions: TFA salt form
human Y1 receptor = biological target: T1, human Y1 receptor (Homo sapiens, UniProt P25929); assay: NPY receptor functional assay (cAMP, HEK-CNG cells, ACTOne membrane potential dye); type: cell-based
T1 sequence (P25929 1-384): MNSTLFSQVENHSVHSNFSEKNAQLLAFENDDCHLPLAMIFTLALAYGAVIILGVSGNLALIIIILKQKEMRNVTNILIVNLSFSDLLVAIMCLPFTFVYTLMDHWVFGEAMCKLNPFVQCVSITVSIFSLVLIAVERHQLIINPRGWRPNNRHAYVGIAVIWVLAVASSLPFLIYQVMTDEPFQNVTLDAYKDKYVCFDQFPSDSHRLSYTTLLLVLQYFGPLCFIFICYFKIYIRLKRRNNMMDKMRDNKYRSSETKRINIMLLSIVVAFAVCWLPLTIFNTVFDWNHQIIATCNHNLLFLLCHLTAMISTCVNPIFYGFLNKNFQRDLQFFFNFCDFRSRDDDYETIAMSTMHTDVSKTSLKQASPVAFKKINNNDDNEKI
Description: The NPY family of G-protein coupled receptors include Y1, Y2, Y4, and Y5 in humans and rats. […] Following agonist binding, the receptor-G protein complex activates a downstream intracellular signaling cascade which leads to inhibition of adenylate cyclase and a reduction in intracellular cAMP levels.
HEK-CNG cells stably expressing the human or rat Y1, Y2, Y4 or Y5 receptors (Codex Biosolutions) were used to characterize the functional potency of peptide agonists using the ActOne™ membrane potential dye kit (Codex Biosolutions). In addition to each NPY receptor, each cell line encodes a proprietary exogenous Cyclic Nucleotide-Gated (CNG) channel (Codex Biosolutions). The channel is activated by elevated intracellular levels of cAMP, resulting in ion flux and cell membrane depolarization which can be detected with a calcium sensitive dye or fluorescent membrane potential (MP) dye. Cells were carried in growth media containing 90% DMEM, 10% FBS, 250 mcg/mL G418 and 1 mcg/mL puromycin for no more than 15 passages.
Prior to testing, cells were counted and dispensed at 14,000 cells per well (Y1, Y4 and Y5) or 28,000 cells per well (Y2) into black 384 well Poly-D-Lysine plates at 20 mcL per well. Covered plates were then incubated at room temperature for 30 minutes followed by an overnight incubation at 37° C. in 5% C02. The following day, media was removed and wells were washed once with 40 mcL Dulbecco's phosphate buffered saline. […] Ten microliters of experimental peptide or peptide standard was added in triplicate to wells and incubated for 50 minutes at room temperature in the dark. Following this incubation step, plates were read again as before (final read).
NPY receptor activation, leading to a reduction in intracellular cAMP levels, is detected as a decrease in isoproteranol induced fluorescent signal. Peptide standard and experimental values were initially transformed in excel using the formula: final read/initial read. […] Normalized data was analyzed from triplicate tests and used to estimate the EC50 for each test peptide on each receptor. Data was fit in GraphPad Prism software (v8.2.1) using a 3-parameter logistic curve model: Y=Bottom+(Top−Bottom)/(1+10^((LogEC50−X))). EC50 values were converted to pEC50 values using the formula: pEC50=−Log(EC50).

human Y2 receptor = biological target: T2, human Y2 receptor (Homo sapiens, UniProt P49146); assay: as above; type: cell-based; conditions: NPY2R pEC50, HEK-CNG cells; standard PYY(3-36); species (human or rat) not given
T2 sequence (P49146 1-381): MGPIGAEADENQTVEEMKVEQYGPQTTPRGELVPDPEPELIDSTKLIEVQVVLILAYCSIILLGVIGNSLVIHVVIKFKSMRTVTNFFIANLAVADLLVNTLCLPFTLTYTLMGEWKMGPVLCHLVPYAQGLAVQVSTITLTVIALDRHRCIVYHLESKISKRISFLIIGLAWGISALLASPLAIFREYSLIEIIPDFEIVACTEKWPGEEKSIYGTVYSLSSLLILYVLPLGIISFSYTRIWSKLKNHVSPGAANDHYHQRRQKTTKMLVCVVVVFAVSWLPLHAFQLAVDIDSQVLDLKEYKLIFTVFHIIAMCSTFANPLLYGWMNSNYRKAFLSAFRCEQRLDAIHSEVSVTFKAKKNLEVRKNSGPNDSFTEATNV
Method in brief: (§1)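 HEK-CNG cells stably expressing each human receptor; peptides added in triplicate for 50 minutes at room temperature, with agonism read as decreased isoproterenol-induced membrane potential dye signal (final/initial read).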

human Y5 receptor = biological target: T3, human Y5 receptor (Homo sapiens, UniProt Q15761); assay: as above; type: cell-based; conditions: NPY5R pEC50, HEK-CNG cells; standard NPY; species (human or rat) not given
T3 sequence (Q15761 1-445): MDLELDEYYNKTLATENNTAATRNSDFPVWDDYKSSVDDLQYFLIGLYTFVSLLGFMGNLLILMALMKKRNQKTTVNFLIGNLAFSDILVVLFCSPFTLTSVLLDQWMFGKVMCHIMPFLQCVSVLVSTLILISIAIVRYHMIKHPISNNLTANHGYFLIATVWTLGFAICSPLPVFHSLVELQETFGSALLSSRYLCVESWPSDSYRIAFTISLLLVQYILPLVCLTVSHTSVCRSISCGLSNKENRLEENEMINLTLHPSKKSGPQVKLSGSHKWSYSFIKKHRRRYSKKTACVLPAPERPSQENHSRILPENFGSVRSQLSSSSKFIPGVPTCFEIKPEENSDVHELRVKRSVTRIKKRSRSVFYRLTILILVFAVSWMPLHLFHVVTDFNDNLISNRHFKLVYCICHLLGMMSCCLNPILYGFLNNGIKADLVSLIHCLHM
Method in brief: as §1

Compound | Solubility (in Water, RT) [1] [mg/mL] | Stability (37° C./RT, T0: Mar. 25, 2020) [2] | EC50 (human Y1 receptor) [nM] | EC50 (human Y2 receptor) [nM] | EC50 (human Y5 receptor) [nM]
CC(C)C[C@H](NC(=O)[C@H](CC(=O)O)NC(=O)[C@@H]1CCCCNC(=O)C[C@H](NC(=O)[C@H](Cc2c[nH]c3ccccc23)NC(=O)[C@H](CCC(=O)O)NC(=O)[C@H](CCCCN)NC(=O)[C@@H]2CCCN2C(=O)[C@H](CO)NC(=O)[C@H](C)NC(=O)[C@H](CC(=O)O)NC(=O)[C@H](CCCCNC(=O)CC[C@H](NC(=O)CC[C@H](NC(=O)CCCCCCCCCCCCCCCCCC(=O)O)C(=O)O)C(=O)O)NC(=O)CNC(=O)[C@@H]2CCCN2C(=O)[C@H](CCCCN)NC(=O)[C@H](CCC(=O)O)NC(=O)[C@@H]2CCCN2C(=O)[C@H](CCCCN)NC(=O)[C@@H]2CCCN2)C(=O)N[C@@H](CCCNC(=N)N)C(=O)N[C@@H](Cc2ccc(O)cc2)C(=O)N[C@@H](Cc2ccc(O)cc2)C(=O)N1)C(=O)N[C@@H](CCCNC(=N)N)C(=O)N[C@@H](Cc1c[nH]cn1)C(=O)N[C@@H](Cc1ccc(O)cc1)C(=O)N[C@@H](CC(C)C)C(=O)N[C@@H](CC(N)=O)C(=O)N[C@@H](Cc1c[nH]c2ccccc12)C(=O)N[C@@H](CC(C)C)C(=O)N[C@H](C(=O)N[C@@H](CCCNC(=N)N)C(=O)N[C@@H](CCC(N)=O)C(=O)N[C@@H](CCCNC(=N)N)C(=O)N[C@@H](Cc1ccccc1)C(N)=O)[C@@H](C)O [Compound A40] | 27 | 98.1 | – | – | –
CC(C)C[C@H](NC(=O)[C@H](CC(=O)O)NC(=O)[C@H](CCCCN)NC(=O)[C@H](Cc1ccc(O)cc1)NC(=O)[C@H](Cc1ccc(O)cc1)NC(=O)[C@H](CCCNC(=N)N)NC(=O)[C@H](CC(N)=O)NC(=O)[C@H](Cc1c[nH]c2ccccc12)NC(=O)[C@H](CCC(=O)O)NC(=O)[C@H](CCCCN)NC(=O)[C@@H]1CCCN1C(=O)[C@H](CO)NC(=O)[C@H](C)NC(=O)[C@H](CC(=O)O)NC(=O)[C@H](CCC(=O)O)NC(=O)CNC(=O)[C@@H]1CCCN1C(=O)[C@H](CCCCNC(=O)CC[C@H](NC(=O)CC[C@H](NC(=O)CCCCCCCCCCCCCCCCCCC(=O)O)C(=O)O)C(=O)O)NC(=O)[C@H](CCC(=O)O)NC(=O)[C@@H]1CCCN1C(=O)[C@H](CCCCN)NC(=O)[C@@H]1CCCN1)C(=O)N[C@@H](CCCNC(=N)N)C(=O)N[C@@H](Cc1c[nH]cn1)C(=O)N[C@@H](Cc1ccc(O)cc1)C(=O)N[C@@H](CC(C)C)C(=O)N[C@@H](CC(N)=O)C(=O)N[C@@H](Cc1c[nH]c2ccccc12)C(=O)N[C@@H](CC(C)C)C(=O)N[C@H](C(=O)N[C@@H](CCCNC(=N)N)C(=O)N[C@@H](CCC(N)=O)C(=O)N[C@@H](CCCNC(=N)N)C(=O)N[C@@H](Cc1ccccc1)C(N)=O)[C@@H](C)O [Compound A72] | – | – | 1 | 0.0158 | 1.58
CC(C)C[C@H](NC(=O)[C@H](CC(=O)O)NC(=O)[C@H](CCCCN)NC(=O)[C@H](Cc1ccc(O)cc1)NC(=O)[C@H](Cc1ccc(O)cc1)NC(=O)[C@H](CCCNC(=N)N)NC(=O)[C@H](CC(N)=O)NC(=O)[C@H](Cc1c[nH]c2ccccc12)NC(=O)[C@H](CCC(=O)O)NC(=O)[C@H](CCCCN)NC(=O)[C@@H]1CCCN1C(=O)[C@H](CO)NC(=O)[C@H](C)NC(=O)[C@H](CC(=O)O)NC(=O)[C@H](CCC(=O)O)NC(=O)CNC(=O)[C@@H]1CCCN1C(=O)[C@H](CCCCNC(=O)CC[C@H](NC(=O)CC[C@H](NC(=O)CCCCCCCCCCCCCCCCC(=O)O)C(=O)O)C(=O)O)NC(=O)[C@H](CCC(=O)O)NC(=O)[C@@H]1CCCN1C(=O)[C@H](CCCCN)NC(=O)[C@@H]1CCCN1)C(=O)N[C@@H](CCCNC(=N)N)C(=O)N[C@@H](Cc1c[nH]cn1)C(=O)N[C@@H](Cc1ccc(O)cc1)C(=O)N[C@@H](CC(C)C)C(=O)N[C@@H](CC(N)=O)C(=O)N[C@@H](Cc1c[nH]c2ccccc12)C(=O)N[C@@H](CC(C)C)C(=O)N[C@H](C(=O)N[C@@H](CCCNC(=N)N)C(=O)N[C@@H](CCC(N)=O)C(=O)N[C@@H](CCCNC(=N)N)C(=O)N[C@@H](Cc1ccccc1)C(N)=O)[C@@H](C)O [Compound A38] | – | – | 2.51 | – | 3.98
CC(C)C[C@H](NC(=O)[C@H](Cc1ccc(O)cc1)NC(=O)[C@H](Cc1c[nH]cn1)NC(=O)[C@H](CCCNC(=N)N)NC(=O)[C@H](CC(C)C)NC(=O)[C@H](CC(=O)O)NC(=O)[C@@H](CCCCNC(=O)CC[C@H](NC(=O)COCCOCCNC(=O)COCCOCCNC(=O)CC[C@H](NC(=O)CCCCCCCCCCCCCCCCCCC(=O)O)C(=O)O)C(=O)O)NC(=O)[C@H](Cc1ccc(O)cc1)NC(=O)[C@H](Cc1ccc(O)cc1)NC(=O)[C@H](CCCNC(=N)N)NC(=O)[C@H](CC(N)=O)NC(=O)[C@H](Cc1c[nH]c2ccccc12)NC(=O)[C@H](CCC(=O)O)NC(=O)[C@H](CCC(=O)O)NC(=O)[C@@H]1CCCN1C(=O)[C@H](CO)NC(=O)[C@H](C)NC(=O)[C@H](CC(=O)O)NC(=O)[C@H](CCCCN)NC(=O)CNC(=O)[C@@H]1CCCN1C(=O)[C@H](C)NC(=O)[C@H](CCC(=O)O)NC(=O)[C@@H]1CCCN1C(=O)[C@H](CCCCN)NC(=O)[C@@H]1CCCN1)C(=O)N[C@@H](CC(N)=O)C(=O)N[C@@H](Cc1c[nH]c2ccccc12)C(=O)N[C@@H](CC(C)C)C(=O)N[C@H](C(=O)N[C@@H](CCCNC(=N)N)C(=O)N[C@@H](CCC(N)=O)C(=O)N[C@@H](CCCNC(=N)N)C(=O)N[C@@H](Cc1ccccc1)C(N)=O)[C@@H](C)O [Compound A65] | – | – | 10 | 0.0631 | 2.51
CC(C)C[C@H](NC(=O)[C@H](CC(=O)O)NC(=O)[C@H](CCCCN)NC(=O)[C@H](Cc1ccc(O)cc1)NC(=O)[C@H](Cc1ccc(O)cc1)NC(=O)[C@H](CCCNC(=N)N)NC(=O)[C@H](CC(N)=O)NC(=O)[C@H](Cc1c[nH]c2ccccc12)NC(=O)[C@H](CCC(=O)O)NC(=O)[C@H](CCC(=O)O)NC(=O)[C@@H]1CCCN1C(=O)[C@H](CO)NC(=O)[C@H](C)NC(=O)[C@H](CC(=O)O)NC(=O)[C@H](CCCCNC(=O)CC[C@H](NC(=O)CC[C@H](NC(=O)CCCCCCCCCCCCCCCCCCC(=O)O)C(=O)O)C(=O)O)NC(=O)CNC(=O)[C@@H]1CCCN1C(=O)[C@H](CCCCN)NC(=O)[C@H](CCC(=O)O)NC(=O)[C@@H]1CCCN1C(=O)[C@H](CCCCN)NC(=O)[C@@H]1CCCN1)C(=O)N[C@@H](CCCNC(=N)N)C(=O)N[C@@H](Cc1c[nH]cn1)C(=O)N[C@@H](Cc1ccc(O)cc1)C(=O)N[C@@H](CC(C)C)C(=O)N[C@@H](CC(N)=O)C(=O)N[C@@H](Cc1c[nH]c2ccccc12)C(=O)N[C@@H](CC(C)C)C(=O)N[C@H](C(=O)N[C@@H](CCCNC(=N)N)C(=O)N[C@@H](CCC(N)=O)C(=O)N[C@@H](CCCNC(=N)N)C(=O)N[C@@H](Cc1ccccc1)C(N)=O)[C@@H](C)O [Compound A74] | – | – | 0.501 | 0.0501 | 1
